Results as given in article PMC11233931, “Remodeling tumor‐associated macrophage for anti‐cancer effects by rational design of irreversible inhibition of mitogen‐activated protein kinase‐activated protein kinase 2” (MedComm, 2024).

Legend:
Test in all cases: Eurofins kinase selectivity profile against 380 other human recombinant kinases (Table S2)
Type in all cases: biochemical
[1] = molecular target: T1, 380 human recombinant protein kinases (Homo sapiens, UniProt O00141); conditions: SGK(h), read-out: Inhibition rate (%)
T1 construct: purchased Eurofins (Celle Lévescault)
T1 sequence (O00141 1-431): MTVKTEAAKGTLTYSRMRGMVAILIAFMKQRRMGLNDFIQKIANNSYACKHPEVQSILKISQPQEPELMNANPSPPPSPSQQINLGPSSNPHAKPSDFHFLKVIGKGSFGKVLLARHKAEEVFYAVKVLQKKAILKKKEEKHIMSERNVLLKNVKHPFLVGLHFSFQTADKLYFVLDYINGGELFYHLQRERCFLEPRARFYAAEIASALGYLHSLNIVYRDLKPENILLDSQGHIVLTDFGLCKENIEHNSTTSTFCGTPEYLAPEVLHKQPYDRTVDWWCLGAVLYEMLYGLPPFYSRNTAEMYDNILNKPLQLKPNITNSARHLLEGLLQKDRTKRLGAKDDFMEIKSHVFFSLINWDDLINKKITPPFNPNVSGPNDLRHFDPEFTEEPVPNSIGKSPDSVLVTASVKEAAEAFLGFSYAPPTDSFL
Procedure: (§1) Subsequently, to ascertain whether the high potency of compound 11 was specific for MK2, an additional 380 human recombinant protein kinases were screened.
(§2) To assess the impact of various compounds on MK2 kinase activity, we utilized the ADP‐Glo Assay Kit (Promega) following the manufacturer's instructions. Luminescence measurements were taken using a SpectraMax Paradigm reader. The inhibition percentage was calculated using the following formula: ((specific signalDMSO control − specific signal inhibitor)/(specific signalDMSO control)) × 100%. The IC50 values were determined employing dose–response curve fitting via Prism (Graph Pad). Additionally, Eurofins company (Celle Lévescault) conducted the analysis on compound 11’s inhibitory activity against 380 other human recombinant kinases at various concentrations.

[2] = molecular target: T2, 380 human recombinant protein kinases (Homo sapiens, UniProt P23458); conditions: JAK1(h), read-out: Inhibition rate
T2 construct: purchased Eurofins (Celle Lévescault)
Procedure: as §1, §2

[3] = molecular target: T3, 380 human recombinant protein kinases (Homo sapiens, UniProt P19784); conditions: CK2α2(h), read-out: Inhibition rate
T3 construct: purchased Eurofins (Celle Lévescault)
Procedure: as §1, §2

[4] = molecular target: T4, 380 human recombinant protein kinases (Homo sapiens, UniProt P54753); conditions: EphB3(h), read-out: Inhibition rate
T4 construct: purchased Eurofins (Celle Lévescault)
T4 sequence (P54753 34-998): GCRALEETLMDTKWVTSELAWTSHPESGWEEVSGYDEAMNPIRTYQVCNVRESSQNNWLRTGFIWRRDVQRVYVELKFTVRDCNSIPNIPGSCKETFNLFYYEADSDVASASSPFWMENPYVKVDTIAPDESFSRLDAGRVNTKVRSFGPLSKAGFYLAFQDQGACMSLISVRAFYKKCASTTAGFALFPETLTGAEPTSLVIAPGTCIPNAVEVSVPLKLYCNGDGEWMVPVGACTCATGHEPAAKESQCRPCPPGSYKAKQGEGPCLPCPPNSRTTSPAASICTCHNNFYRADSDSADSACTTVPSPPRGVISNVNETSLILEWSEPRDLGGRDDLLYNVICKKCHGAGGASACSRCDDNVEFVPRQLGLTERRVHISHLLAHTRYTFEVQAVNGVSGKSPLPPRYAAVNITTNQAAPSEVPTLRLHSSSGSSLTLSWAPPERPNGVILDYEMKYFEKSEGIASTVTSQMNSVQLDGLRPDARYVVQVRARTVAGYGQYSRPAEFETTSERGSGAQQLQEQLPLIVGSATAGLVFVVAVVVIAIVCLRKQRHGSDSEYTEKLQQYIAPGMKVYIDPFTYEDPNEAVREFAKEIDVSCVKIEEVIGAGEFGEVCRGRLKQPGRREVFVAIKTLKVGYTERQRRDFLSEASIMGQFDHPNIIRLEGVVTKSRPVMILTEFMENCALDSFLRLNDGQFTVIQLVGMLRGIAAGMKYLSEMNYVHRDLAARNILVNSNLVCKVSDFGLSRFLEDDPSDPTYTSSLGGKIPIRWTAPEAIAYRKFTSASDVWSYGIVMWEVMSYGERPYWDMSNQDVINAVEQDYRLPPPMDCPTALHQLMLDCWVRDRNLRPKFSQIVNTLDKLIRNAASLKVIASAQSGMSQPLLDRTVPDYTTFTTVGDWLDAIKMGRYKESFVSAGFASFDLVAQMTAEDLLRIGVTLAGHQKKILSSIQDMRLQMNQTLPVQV
Procedure: as §1, §2

[5] = molecular target: T5, 380 human recombinant protein kinases (Homo sapiens, UniProt Q13976); conditions: PKG1α(h), read-out: Inhibition rate
T5 construct: purchased Eurofins (Celle Lévescault)
T5 sequence (Q13976 1-671): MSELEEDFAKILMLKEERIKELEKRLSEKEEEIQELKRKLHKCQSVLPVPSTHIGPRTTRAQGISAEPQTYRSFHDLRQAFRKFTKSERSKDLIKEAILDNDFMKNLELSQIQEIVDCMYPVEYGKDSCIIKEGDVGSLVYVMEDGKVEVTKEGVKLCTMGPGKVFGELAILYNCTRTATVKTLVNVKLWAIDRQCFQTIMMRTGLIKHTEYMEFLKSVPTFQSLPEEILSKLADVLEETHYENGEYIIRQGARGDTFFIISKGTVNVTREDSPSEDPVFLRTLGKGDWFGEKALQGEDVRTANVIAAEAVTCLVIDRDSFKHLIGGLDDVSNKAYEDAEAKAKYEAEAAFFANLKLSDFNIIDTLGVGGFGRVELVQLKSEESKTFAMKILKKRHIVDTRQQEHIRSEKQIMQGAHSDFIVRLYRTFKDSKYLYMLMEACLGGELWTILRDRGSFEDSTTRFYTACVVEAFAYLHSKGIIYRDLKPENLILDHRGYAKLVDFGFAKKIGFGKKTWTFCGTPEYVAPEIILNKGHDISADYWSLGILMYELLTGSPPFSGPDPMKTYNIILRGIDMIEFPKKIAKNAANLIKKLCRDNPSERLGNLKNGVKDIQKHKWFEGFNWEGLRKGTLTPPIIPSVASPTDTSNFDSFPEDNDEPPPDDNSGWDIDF
Procedure: as §1, §2

[6] = molecular target: T6, 380 human recombinant protein kinases (Homo sapiens, UniProt P29317); conditions: EphA2(h), read-out: Inhibition rate
T6 construct: purchased Eurofins (Celle Lévescault)
Procedure: as §1, §2

[7] = molecular target: T7, 380 human recombinant protein kinases (Homo sapiens, UniProt Q96RG2); conditions: PASK(h), read-out: Inhibition rate
T7 construct: purchased Eurofins (Celle Lévescault)
Procedure: as §1, §2

T7 sequence (Q96RG2 whole entry): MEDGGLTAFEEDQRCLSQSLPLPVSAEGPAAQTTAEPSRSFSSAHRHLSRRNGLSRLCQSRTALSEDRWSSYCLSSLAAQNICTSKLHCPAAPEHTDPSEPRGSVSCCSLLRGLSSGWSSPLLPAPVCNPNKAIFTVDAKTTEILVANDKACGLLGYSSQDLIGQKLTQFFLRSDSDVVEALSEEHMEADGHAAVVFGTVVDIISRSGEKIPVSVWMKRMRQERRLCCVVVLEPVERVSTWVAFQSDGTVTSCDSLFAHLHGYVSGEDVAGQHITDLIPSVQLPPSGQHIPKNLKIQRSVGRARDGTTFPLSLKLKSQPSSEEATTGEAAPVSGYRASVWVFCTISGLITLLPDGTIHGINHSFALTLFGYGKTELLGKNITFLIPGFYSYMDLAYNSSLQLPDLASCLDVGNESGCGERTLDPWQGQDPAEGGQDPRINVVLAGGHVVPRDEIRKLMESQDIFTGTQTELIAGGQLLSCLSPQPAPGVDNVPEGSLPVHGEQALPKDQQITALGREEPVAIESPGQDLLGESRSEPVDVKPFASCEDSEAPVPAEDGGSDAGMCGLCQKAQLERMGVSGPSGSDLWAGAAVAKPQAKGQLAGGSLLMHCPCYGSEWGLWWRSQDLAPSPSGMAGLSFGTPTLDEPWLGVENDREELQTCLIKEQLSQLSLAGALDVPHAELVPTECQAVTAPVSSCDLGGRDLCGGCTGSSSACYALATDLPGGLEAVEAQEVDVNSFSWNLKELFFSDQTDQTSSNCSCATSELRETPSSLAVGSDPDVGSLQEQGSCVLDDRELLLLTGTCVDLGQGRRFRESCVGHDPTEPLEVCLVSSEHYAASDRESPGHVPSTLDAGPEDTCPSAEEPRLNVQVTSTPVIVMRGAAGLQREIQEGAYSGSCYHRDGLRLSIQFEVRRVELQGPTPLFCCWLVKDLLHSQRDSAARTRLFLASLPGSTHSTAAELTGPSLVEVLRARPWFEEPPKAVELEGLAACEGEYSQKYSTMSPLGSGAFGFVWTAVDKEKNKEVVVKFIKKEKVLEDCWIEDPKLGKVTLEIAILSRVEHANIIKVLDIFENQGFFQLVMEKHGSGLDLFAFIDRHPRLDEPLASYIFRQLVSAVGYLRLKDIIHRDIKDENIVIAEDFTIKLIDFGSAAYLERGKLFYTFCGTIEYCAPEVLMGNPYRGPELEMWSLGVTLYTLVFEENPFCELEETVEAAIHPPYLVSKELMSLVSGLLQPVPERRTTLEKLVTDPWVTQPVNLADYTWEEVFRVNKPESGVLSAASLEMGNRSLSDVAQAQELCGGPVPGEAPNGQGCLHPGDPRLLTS
T3 sequence (P19784 whole entry): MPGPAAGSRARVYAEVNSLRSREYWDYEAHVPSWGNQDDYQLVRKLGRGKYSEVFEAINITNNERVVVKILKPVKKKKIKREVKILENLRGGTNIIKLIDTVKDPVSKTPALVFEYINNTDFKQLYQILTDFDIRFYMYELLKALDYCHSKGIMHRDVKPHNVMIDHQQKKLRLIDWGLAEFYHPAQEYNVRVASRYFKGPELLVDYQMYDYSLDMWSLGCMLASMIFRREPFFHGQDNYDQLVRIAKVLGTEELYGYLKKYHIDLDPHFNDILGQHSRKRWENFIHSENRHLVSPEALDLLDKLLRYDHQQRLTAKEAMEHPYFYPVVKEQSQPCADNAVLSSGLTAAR
T6 sequence (P29317 24-976): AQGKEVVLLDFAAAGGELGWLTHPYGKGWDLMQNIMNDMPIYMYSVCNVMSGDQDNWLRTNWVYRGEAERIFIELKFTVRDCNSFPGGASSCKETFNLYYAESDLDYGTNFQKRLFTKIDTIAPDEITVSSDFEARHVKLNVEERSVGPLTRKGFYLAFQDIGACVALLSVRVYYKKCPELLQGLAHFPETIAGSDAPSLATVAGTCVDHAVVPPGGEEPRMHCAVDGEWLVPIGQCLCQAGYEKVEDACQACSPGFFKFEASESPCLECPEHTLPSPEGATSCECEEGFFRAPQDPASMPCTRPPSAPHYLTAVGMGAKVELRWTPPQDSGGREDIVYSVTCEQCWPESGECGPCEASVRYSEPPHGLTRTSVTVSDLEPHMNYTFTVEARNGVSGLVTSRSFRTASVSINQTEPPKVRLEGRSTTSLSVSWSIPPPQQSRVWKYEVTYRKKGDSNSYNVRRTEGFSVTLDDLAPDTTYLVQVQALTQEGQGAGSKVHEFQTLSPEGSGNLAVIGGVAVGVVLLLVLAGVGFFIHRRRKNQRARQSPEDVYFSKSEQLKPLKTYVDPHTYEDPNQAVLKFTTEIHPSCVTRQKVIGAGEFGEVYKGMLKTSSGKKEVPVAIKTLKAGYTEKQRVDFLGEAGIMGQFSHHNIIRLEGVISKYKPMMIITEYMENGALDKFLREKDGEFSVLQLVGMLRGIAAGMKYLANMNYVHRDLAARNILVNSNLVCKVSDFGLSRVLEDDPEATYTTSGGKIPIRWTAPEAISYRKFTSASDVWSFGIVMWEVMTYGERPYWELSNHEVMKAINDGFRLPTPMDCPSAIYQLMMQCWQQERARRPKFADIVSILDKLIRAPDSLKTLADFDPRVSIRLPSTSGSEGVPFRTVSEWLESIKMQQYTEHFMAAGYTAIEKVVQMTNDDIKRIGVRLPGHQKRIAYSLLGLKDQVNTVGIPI
T2 sequence (P23458 whole entry): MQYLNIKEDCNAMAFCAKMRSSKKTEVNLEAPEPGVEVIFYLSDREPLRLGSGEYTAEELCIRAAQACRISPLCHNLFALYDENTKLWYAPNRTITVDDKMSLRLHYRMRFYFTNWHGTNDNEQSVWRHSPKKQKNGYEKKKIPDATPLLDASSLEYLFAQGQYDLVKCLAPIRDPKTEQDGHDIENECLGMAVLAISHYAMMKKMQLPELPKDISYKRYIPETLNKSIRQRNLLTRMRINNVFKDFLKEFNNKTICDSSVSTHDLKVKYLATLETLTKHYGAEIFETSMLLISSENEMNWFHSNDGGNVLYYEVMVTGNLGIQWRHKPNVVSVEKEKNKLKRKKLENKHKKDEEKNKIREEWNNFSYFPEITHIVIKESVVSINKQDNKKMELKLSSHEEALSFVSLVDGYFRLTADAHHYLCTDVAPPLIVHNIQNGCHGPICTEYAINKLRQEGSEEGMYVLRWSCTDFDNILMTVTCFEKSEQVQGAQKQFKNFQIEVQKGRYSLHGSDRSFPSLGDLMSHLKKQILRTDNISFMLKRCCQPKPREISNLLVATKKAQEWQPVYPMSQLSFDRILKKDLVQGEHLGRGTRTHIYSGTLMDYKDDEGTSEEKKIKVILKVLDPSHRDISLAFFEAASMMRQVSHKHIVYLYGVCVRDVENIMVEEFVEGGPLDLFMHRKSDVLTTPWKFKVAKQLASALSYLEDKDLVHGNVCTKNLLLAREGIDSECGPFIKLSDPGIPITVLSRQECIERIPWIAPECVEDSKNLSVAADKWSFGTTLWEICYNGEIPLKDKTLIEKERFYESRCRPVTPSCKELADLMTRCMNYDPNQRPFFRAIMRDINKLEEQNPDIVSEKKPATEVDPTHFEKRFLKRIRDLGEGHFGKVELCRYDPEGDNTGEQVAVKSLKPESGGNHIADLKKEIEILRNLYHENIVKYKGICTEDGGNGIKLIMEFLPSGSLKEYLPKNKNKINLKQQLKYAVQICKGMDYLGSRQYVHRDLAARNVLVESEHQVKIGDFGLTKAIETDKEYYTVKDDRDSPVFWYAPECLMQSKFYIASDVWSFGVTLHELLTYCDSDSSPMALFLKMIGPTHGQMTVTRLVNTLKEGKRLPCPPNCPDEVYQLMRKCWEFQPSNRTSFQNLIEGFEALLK

For `C=CC(=O)Nc1cc(-c2cc(-c3cc4c([nH]3)CCNC4=O)ccn2)ccc1OC(F)(F)F` [compound 11], the inhibition at 0.01 µM ([1]; 10 nM) was 0%, the inhibition at 0.1 µM ([1]; 100 nM) was 7% and the inhibition at 1 µM ([1]; 1000 nM) was 1%. The inhibition at 0.01 µM ([2]; 10 nM) was -6%, the inhibition at 0.1 µM ([2]; 100 nM) was -8% and the inhibition at 1 µM ([2]; 1000 nM) was 1%. It also gave an inhibition at 0.01 µM ([3]; 10 nM) of 10%, an inhibition at 0.1 µM ([3]; 100 nM) of 14% and an inhibition at 1 µM ([3]; 1000 nM) of 26%. It also gave an inhibition at 0.01 µM ([4]; 10 nM) of 3%, an inhibition at 0.1 µM ([4]; 100 nM) of -12% and an inhibition at 1 µM ([4]; 1000 nM) of -1%. For the same compound, the inhibition at 0.01 µM ([5]; 10 nM) was 1%, the inhibition at 0.1 µM ([5]; 100 nM) was -4% and the inhibition at 1 µM ([5]; 1000 nM) was 8%. It also gave an inhibition at 0.01 µM ([6]; 10 nM) of 0%, an inhibition at 0.1 µM ([6]; 100 nM) of 3% and an inhibition at 1 µM ([6]; 1000 nM) of -2%. It also gave an inhibition at 0.01 µM ([7]; 10 nM) of 13%, an inhibition at 0.1 µM ([7]; 100 nM) of 4% and an inhibition at 1 µM ([7]; 1000 nM) of 12%.
